The values that follow are results of earlier work, collected in paper PMC9099123 (Clinical and Translational Science, 2022).

In one data set the test system is P-gp. The note with it: co-administration with rifampin; cited from earlier work.
Another data set relates to BCRP. As to conditions: co-administered with rifampin; cited from earlier work.

Regarding `CO[C@H]1/C=C/O[C@@]2(C)Oc3c(C)c(O)c4c(O)c(c(/C=N/N5CCN(C)CC5)c(O)c4c3C2=O)NC(=O)/C(C)=C\C=C\[C@H](C)[C@H](O)[C@@H](C)[C@@H](O)[C@@H](C)[C@H](OC(C)=O)[C@@H]1C` [rifampin], in the data set with P-gp, the “decrease of AUC of digoxin” value is 30% and the “decrease of Cmax of digoxin” value is 58%. Besides, the “decrease in Cmax of rosuvastatin” value in the data set with BCRP was 30%.
